Test results: US7919504B2, “Thiadiazole modulators of PKB” (Amgen Inc., priority 2007, dated 2011)
Counter-ions that a name gives are not always drawn.

Biological target: T1, PKBα (Homo sapiens, UniProt P31749)
T1 construct: the full length PKBα and a kinase domain of PKBα with pleckstrin domain (amino acids 1-117) deleted
Experiment: PKB kinase assay (P33-labeled ATP, synthetic peptide substrate, filter plate capture)
Format: biochemical
Details: with respect to PKBα
From the text: The kinase assay for evaluating PKB activity comprises active PKB enzymes, a PKB specific substrate, and P^33-labeled ATP. Two form of PKBα enzymes were used, the full length PKBα and a kinase domain of PKBα with pleckstrin domain (amino acids 1-117) deleted. Both PKB enzymes were obtained from Upstate cell signaling solutions (Cat. #14-276 and 14-341). The PKB substrate used is a synthetic peptide (ARKRERTYSFGHHA (SEQ ID NO: 1)) as described in Obata et al., J. Biol. Chem. 275 (46), 36108-36115 (2000). The phosphorylated substrate was captured by a phosphocellulose membrane filter plate (MILLIPORE) and measured by a Wallac Microbeta liquid scintillation counter (Perkin Elmer). Table 1 provides the IC50 values obtained for each of the examples with respect to PKBα.

T1 sequence (P31749 118-480 limits assumed): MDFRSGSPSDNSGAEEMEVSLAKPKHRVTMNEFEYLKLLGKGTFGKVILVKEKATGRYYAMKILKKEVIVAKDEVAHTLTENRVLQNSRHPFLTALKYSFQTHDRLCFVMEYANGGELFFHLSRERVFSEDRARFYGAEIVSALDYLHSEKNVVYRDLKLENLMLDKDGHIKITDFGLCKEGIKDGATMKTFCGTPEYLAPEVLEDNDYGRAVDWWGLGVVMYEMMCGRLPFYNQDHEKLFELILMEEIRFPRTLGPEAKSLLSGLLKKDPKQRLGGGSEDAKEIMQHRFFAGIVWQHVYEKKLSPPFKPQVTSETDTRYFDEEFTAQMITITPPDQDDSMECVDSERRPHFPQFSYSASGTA

Row | Compound | IC50 [nM]
1 | FC(F)(F)c1ccc([C@@H]2CCN[C@@H]2CNc2nnc(-c3ccc4cnccc4c3)s2)cc1 [Example 27, 5-(Isoquinolin-6-yl)-N-(((2S,3S)-3-(4-(trifluoromethyl)phenyl)pyrrolidin-2-yl)methyl)-1,3,4-thiadiazol-2-amine] | 1000 to 10000
2 | CCC(O)CNc1nnc(-c2ccc3cnccc3c2)s1 (racemic) [Example 23, (±)-1-(5-(Isoquinolin-6-yl)-1,3,4-thiadiazol-2-ylamino)butan-2-ol] | 1000 to 10000
3 | N[C@H](CNc1nnc(-c2cc3ccncc3s2)s1)Cc1ccc(C(F)(F)F)cc1 [Example 10, N-((S)-2-Amino-3-(4-(trifluoromethyl)phenyl)propyl)-5-(thieno[2,3-c]pyridin-2-yl)-1,3,4-thiadiazol-2-amine] | < 50
4 | OC(CNc1nnc(-c2ccc3cnccc3c2)s1)Cc1ccc(C(F)(F)F)cc1 (racemic) [Example 30, (±)-1-(5-(Isoquinolin-6-yl)-1,3,4-thiadiazol-2-ylamino)-3-(4-(trifluoromethyl)phenyl)propan-2-ol] | 50 to 1000
5 | N[C@H](COc1nnc(-c2ccc3cnccc3c2)s1)Cc1ccc(C(F)(F)F)cc1 [Example 32, (2S)-1-(5-(isoquinolin-6-yl)-1,3,4-thiadiazol-2-yloxy)-3-(4-(trifluoromethyl)phenyl)propan-2-amine] | 50 to 1000
6 | N[C@H](CCc1nnc(-c2ccc3[nH]c(=O)oc3c2)s1)Cc1ccc(C(F)(F)F)cc1 [Example 49, 6-(5-((R)-3-Amino-4-(4-(trifluoromethyl)phenyl)butyl)-1,3,4-thiadiazol-2-yl)benzo[d]oxazol-2(3H)-one] | < 50

Continued, values first:

Row | IC50 [nM] | Compound
7 | < 50 | N[C@H](CNc1nnc(-c2ccc3cnsc3c2)s1)Cc1ccc(C(F)(F)F)cc1 [Example 42, N-((S)-2-Amino-3-(4-(trifluoromethyl)phenyl)propyl)-5-(benzo[d]isothiazol-6-yl)-1,3,4-thiadiazol-2-amine]
8 | 1000 to 10000 | CC(C)=C1C(=O)Nc2ccc(-c3nnc(NC[C@@H](N)Cc4ccc(C(F)(F)F)cc4)s3)cc21 [Example 6, 5-(5-((S)-2-Amino-3-(4-(trifluoromethyl)phenyl)propylamino)-1,3,4-thiadiazol-2-yl)-3-(propan-2-ylidene)indolin-2-one]
9 | < 50 | N[C@H](CNc1nnc(-c2ccc3[nH]c(=O)oc3c2)s1)Cc1ccc(C(F)(F)F)cc1 [Example 11, 6-(5-((S)-2-Amino-3-(4-(trifluoromethyl)phenyl)propylamino)-1,3,4-thiadiazol-2-yl)benzo[d]oxazol-2(3H)-one]
10 | 50 to 1000 | N[C@H](CNc1nnc(-c2cc3c(Cl)cncc3s2)s1)Cc1ccc(C(F)(F)F)cc1 [Example 9, N-((S)-2-amino-3-(4-(trifluoromethyl)phenyl)propyl)-5-(4-chlorothieno[2,3-c]pyridin-2-yl)-1,3,4-thiadiazol-2-amine]
11 | < 50 | N[C@H](CNc1nnc(-c2ccc3c(c2)CC(=O)N3)s1)[C@@H](O)c1ccc(C(F)(F)F)cc1 [Example 51, 5-(5-((2R,3S)-2-Amino-3-hydroxy-3-(4-(trifluoromethyl)phenyl)propylamino)-1,3,4-thiadiazol-2-yl)indolin-2-one trifluoroacetate]
